± gives the expanded uncertainty stated by the source.
Legend:
[1] = mn = molality of the nth substance listed, in mol/kg; conditions: m2 = 0; for surface tension liquid-gas: Ring tensiometer; for viscosity / mass density / speed of sound: 100 kPa, Liquid; for viscosity: Capillary tube (Ostwald / Ubbelohde) method; for mass density: Vibrating tube method; for speed of sound: Frequency=3 MHz, Single path-length method
[2] = for surface tension liquid-gas: Ring tensiometer; for viscosity: 100 kPa, Liquid, Capillary tube (Ostwald / Ubbelohde) method

surface tension liquid-gas ([1]; 293.15 K)	viscosity ([1]; 293.15 K)	surface tension liquid-gas ([1]; 303.15 K)	viscosity ([1]; 303.15 K)	mass density ([1]; 303.15 K)	surface tension liquid-gas ([1]; 313.15 K)	viscosity ([1]; 313.15 K)	speed of sound ([1]; 313.15 K)	mass density ([1]; 313.15 K)	surface tension liquid-gas ([1]; 323.15 K)	viscosity ([1]; 323.15 K)	speed of sound ([1]; 323.15 K)	surface tension liquid-gas ([2]; 293.15 K)	viscosity ([2]; 293.15 K)	surface tension liquid-gas ([2]; 303.15 K)	viscosity ([2]; 303.15 K)	surface tension liquid-gas ([2]; 313.15 K)	viscosity ([2]; 313.15 K)	surface tension liquid-gas ([2]; 323.15 K)	viscosity ([2]; 323.15 K)	Structure (SMILES)
72.6 ± 0.9 mN/m	0.993 ± 0.05 mPa·s	71.1 ± 0.9 mN/m	0.802 ± 0.05 mPa·s	995.9 ± 2 kg/m3	69.2 ± 0.9 mN/m	0.661 ± 0.05 mPa·s	1529.1 ± 0.7 m/s	992.3 ± 2 kg/m3	67.7 ± 0.9 mN/m	0.555 ± 0.05 mPa·s	1541.5 ± 0.7 m/s									O [water] + C1N2CN3CN1CN(C2)C3
												72.6 ± 0.9 mN/m	0.993 ± 0.05 mPa·s	71.1 ± 0.9 mN/m	0.802 ± 0.05 mPa·s	69.2 ± 0.9 mN/m	0.661 ± 0.05 mPa·s	67.7 ± 0.9 mN/m	0.555 ± 0.05 mPa·s	O [water]
